Results: ChEMBL document CHEMBL5107965, “The progress of small-molecules and degraders against BCR-ABL for the treatment of CML” (Eur J Med Chem, 2022)
In brackets after ≈: the same amount, converted by molar mass.

Experiments:
HL-60 = test: animal or person; details: Mus musculus, HL-60, 528 h, read-out: TGI
Description: Antitumor activity against human HL-60 cells xenografted in SCID mouse assessed as tumor growth inhibition at 30 mg/kg, iv measured after 22 days relative to control

[1] = Inhibition of Aurora kinase (unknown origin); set-up: species or system Homo sapiens
[2] = target: Protein cereblon/Tyrosine-protein kinase ABL1/Breakpoint cluster region protein (Homo sapiens, UniProt P00519+P11274+Q96SW2); test: Protac activity at CRBN/BCR-ABL in human K562 cells assessed as reduction in BCR-ABL protein levels incubated for 6 hrs by Western blotting analysis; type: cell-based
Sequence of Protein cereblon/Tyrosine-protein kinase ABL1/Breakpoint cluster region protein (P00519 whole entry): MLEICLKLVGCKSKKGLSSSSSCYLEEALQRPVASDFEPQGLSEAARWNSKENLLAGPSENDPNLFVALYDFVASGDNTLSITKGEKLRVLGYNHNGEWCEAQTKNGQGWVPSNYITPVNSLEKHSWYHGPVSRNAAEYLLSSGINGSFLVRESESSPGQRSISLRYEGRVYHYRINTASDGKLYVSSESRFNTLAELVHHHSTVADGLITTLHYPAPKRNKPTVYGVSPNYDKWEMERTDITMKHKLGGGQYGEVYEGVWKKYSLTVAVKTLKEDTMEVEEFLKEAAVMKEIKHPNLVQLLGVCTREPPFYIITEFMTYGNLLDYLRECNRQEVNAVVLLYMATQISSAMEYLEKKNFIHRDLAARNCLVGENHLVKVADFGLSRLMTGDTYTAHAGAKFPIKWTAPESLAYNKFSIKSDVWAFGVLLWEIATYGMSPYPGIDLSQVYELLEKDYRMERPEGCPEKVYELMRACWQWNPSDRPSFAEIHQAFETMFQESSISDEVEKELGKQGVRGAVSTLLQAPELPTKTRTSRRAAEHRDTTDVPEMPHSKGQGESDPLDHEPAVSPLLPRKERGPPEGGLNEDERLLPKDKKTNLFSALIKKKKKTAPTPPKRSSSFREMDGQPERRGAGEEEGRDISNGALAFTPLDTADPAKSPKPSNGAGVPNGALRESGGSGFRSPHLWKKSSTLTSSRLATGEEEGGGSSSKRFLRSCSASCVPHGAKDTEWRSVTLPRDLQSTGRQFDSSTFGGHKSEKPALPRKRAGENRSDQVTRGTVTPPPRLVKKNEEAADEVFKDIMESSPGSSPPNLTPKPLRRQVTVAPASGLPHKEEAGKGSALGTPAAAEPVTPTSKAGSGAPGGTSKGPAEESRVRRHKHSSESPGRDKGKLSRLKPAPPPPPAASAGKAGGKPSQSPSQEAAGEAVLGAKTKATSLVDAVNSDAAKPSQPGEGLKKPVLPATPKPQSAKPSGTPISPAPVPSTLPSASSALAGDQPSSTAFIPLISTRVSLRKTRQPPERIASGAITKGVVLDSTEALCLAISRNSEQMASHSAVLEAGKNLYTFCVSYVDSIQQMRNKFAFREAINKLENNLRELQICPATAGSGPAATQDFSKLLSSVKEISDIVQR
Sequence of Protein cereblon/Tyrosine-protein kinase ABL1/Breakpoint cluster region protein (P11274 whole entry): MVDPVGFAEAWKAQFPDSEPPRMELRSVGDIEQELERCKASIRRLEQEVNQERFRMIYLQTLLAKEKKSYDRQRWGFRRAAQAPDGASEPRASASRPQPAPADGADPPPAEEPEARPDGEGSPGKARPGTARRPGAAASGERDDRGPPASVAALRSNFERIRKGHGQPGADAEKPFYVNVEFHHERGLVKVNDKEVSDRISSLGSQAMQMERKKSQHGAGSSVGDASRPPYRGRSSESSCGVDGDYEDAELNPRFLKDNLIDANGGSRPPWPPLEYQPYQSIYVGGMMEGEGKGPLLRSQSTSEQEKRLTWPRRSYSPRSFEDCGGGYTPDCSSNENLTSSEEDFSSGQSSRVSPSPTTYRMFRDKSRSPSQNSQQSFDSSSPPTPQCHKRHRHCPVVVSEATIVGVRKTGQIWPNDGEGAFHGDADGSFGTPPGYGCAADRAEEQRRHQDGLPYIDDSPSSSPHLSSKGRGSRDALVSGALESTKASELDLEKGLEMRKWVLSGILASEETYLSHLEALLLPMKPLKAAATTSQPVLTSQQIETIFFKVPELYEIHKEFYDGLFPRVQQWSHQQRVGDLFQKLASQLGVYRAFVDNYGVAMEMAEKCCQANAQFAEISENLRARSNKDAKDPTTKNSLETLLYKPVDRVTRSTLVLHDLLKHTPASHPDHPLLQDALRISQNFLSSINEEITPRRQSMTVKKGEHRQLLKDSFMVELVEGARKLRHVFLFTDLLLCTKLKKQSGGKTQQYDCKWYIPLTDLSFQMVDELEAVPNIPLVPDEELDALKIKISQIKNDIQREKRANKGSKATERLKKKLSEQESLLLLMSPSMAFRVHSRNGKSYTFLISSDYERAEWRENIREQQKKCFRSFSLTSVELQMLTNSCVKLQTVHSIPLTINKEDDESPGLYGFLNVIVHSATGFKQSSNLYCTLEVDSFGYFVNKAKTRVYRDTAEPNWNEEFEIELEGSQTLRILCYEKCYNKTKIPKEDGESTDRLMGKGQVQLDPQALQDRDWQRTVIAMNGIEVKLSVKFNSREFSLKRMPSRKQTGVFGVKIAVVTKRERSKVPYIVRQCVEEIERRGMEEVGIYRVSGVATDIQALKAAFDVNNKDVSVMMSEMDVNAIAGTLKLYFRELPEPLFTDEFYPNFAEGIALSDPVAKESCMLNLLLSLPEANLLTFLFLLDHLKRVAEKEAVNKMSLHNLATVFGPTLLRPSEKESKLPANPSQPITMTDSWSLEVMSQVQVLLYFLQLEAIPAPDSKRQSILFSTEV
Sequence of Protein cereblon/Tyrosine-protein kinase ABL1/Breakpoint cluster region protein (Q96SW2 whole entry): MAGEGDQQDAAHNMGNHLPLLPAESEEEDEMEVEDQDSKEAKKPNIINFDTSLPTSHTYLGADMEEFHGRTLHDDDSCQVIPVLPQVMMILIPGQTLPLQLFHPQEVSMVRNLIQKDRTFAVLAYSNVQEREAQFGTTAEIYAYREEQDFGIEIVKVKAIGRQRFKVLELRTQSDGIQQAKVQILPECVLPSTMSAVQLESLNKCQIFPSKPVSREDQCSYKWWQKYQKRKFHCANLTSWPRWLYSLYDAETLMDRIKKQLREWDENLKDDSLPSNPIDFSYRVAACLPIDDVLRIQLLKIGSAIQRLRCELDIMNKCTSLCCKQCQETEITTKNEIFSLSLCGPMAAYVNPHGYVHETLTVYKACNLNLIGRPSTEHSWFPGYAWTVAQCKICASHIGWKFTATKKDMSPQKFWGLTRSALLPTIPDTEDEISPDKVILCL

K562 [3] = test: Antiproliferative activity against human K562 cells assessed as cell growth inhibition measured after 24 hrs by WST-8 assay; type: functional, cell-based; details: K562, 24 h
[4] = target: Tyrosine-protein kinase ABL1 (Homo sapiens, UniProt P00519); test: Binding affinity to human recombinant His-tagged full length ABL1 expressed in baculovirus expression system by TR-FRET assay
Sequence of Tyrosine-protein kinase ABL1 (P00519 whole entry): as the sequence (P00519 whole entry) above

KU812 cell line = test: Antiproliferative activity against human KU812 cell line assessed as cell growth inhibition measured after 24 hrs by WST-8 assay; type: functional, cell-based; details: KU812, 24 h
KCL-22 = test: Antiproliferative activity against human KCL-22 cells assessed as cell growth inhibition measured after 24 hrs by WST-8 assay; type: functional, cell-based; details: KCL-22, 24 h
K562 [5] = test: Antiproliferative activity against human K562 cells assessed as cell growth inhibition measured after 48 hrs by WST assay; type: functional, cell-based; details: K562, 48 h
[6] = Cmax in mouse at 10 mg/kg, po measured after upto 24 hrs by LC-MS/MS analysis; type: ADME, organism-based; set-up: dose 10 mg/kg, time < 24 hrs, route po; details: in vivo
[7] = Half life in mouse at 10 mg/kg, po measured after upto 24 hrs by LC-MS/MS analysis; type: ADME, organism-based; details: in vivo
K562 [8] = test: Antiproliferative activity against human K562 cells assessed as cell growth inhibition measured after 24 hrs; type: functional, cell-based; details: K562, 24 h
[9] = target: von Hippel-Lindau disease tumor suppressor/Tyrosine-protein kinase ABL1/Breakpoint cluster region protein (Homo sapiens, UniProt P00519+P11274+P40337); test: Protac activity at VHL/BCR-ABL in human K562 cells assessed as reduction in BCR-ABL protein levels by immunoblotting analysis; type: cell-based
Sequence of von Hippel-Lindau disease tumor suppressor/Tyrosine-protein kinase ABL1/Breakpoint cluster region protein (P00519 whole entry): as above
Sequence of von Hippel-Lindau disease tumor suppressor/Tyrosine-protein kinase ABL1/Breakpoint cluster region protein (P11274 whole entry): as the sequence (P11274 whole entry) above
Sequence of von Hippel-Lindau disease tumor suppressor/Tyrosine-protein kinase ABL1/Breakpoint cluster region protein (P40337 whole entry): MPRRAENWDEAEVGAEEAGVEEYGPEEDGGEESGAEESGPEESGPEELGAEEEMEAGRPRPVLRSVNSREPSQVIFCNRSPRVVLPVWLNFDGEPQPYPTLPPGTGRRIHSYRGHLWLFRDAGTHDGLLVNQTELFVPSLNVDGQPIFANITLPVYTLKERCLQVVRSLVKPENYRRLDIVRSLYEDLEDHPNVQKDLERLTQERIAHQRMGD

K562 [10] = test: Antiproliferative activity against imatinib resistant human K562 cells assessed as cell growth inhibition measured after 48 hrs by MTT assay; type: functional, cell-based; details: K562, 48 h
[11] = Cytotoxicity against human CD34-positive/CD38-negative leukemic cell assessed as cell growth inhibition measured after 48 hrs by MTT assay; type: functional, cell-based
Leukemia cell = test: Cytotoxicity against human Leukemia cell assessed as cell growth inhibition measured after 48 hrs by MTT assay; type: functional, cell-based
K562 [12] = test: Antiproliferative activity against human K562 cells assessed as cell growth inhibition; type: functional, cell-based
BaF3 [13] = test: Antiproliferative activity against mouse BaF3 cells harbouring ABL-T315I mutant assessed as cell growth inhibition measured after 72 hrs by MTT assay; type: functional, cell-based; details: BaF3, 72 h
BaF3 [14] = test: cells; details: Mus musculus, BaF3, 72 h
Description: Antiproliferative activity against mouse BaF3 cells harbouring wild type ABL assessed as cell growth inhibition measured after 72 hrs by MTT assay

[15] = AUC in BALB/c mouse at 30 mg/kg, po via gavage; type: ADME, organism-based; set-up: dose 30 mg/kg, route po; details: in vivo
[16] = target: Tyrosine-protein kinase Lyn (Homo sapiens, UniProt P07948); test: Inhibition of LYN (unknown origin) in presence of [gamma33P]-ATP and ATP by ELISA method
Sequence of Tyrosine-protein kinase Lyn (P07948 whole entry): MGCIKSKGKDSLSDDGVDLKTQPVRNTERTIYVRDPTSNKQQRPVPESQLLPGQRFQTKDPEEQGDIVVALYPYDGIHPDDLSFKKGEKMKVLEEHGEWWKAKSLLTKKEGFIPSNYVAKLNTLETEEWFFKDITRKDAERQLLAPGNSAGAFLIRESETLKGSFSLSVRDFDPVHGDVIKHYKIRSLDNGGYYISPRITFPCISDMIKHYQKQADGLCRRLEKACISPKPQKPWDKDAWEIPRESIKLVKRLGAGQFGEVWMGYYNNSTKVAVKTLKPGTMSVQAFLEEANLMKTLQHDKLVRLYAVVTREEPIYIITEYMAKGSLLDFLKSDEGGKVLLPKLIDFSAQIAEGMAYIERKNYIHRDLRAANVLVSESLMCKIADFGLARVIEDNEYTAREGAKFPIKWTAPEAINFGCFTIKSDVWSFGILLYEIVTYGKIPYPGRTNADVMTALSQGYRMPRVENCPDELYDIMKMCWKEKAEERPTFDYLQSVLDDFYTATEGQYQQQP

[17] = Cmax in BALB/c mouse at 30 mg/kg, po via gavage; type: ADME, organism-based; set-up: dose 30 mg/kg, route po; details: in vivo
[18] = Oral bioavailability in BALB/c mouse at 30 mg/kg via gavage; type: ADME, organism-based; details: in vivo
[19] = Half life in BALB/c mouse at 30 mg/kg, po via gavage; type: ADME, organism-based; details: in vivo
[20] = Tmax in BALB/c mouse at 30 mg/kg, po via gavage; type: ADME, organism-based; details: in vivo
[21] = Antiproliferative activity against human KM3 cells assessed as cell growth inhibition measured after 24 hrs by MTT assay; type: functional, cell-based; details: KM3, 24 h
[22] = Antiproliferative activity against human KM3 cells assessed as cell growth inhibition measured after 48 hrs by MTT assay; type: functional, cell-based; details: KM3, 48 h
[23] = Antiproliferative activity against human KM3 cells assessed as cell growth inhibition measured after 72 hrs by MTT assay; type: functional, cell-based; details: KM3, 72 h
[24] = Cytotoxicity against human Hematopoietic stem cell assessed as cell growth inhibition measured after 48 hrs by MTT assay; type: toxicity, cell-based; details: hematopoietic stem cells
K562 [25] = test: Antiproliferative activity against imatinib resistant human K562 cells assessed as cell growth inhibition measured after 24 hrs by MTT assay; type: functional, cell-based; details: K562, 24 h
K562 [26] = test: Antiproliferative activity against human K562 cells assessed as cell growth inhibition measured after 24 to 48 hrs by MTS assay; type: functional, cell-based
KBM5 [27] = test: Antiproliferative activity against human KBM5 cells assessed as cell growth inhibition measured after 24 to 48 hrs by MTS assay; type: functional, cell-based
KBM5 [28] = test: Antiproliferative activity against human KBM5 cells harbouring T315I mutant assessed as cell growth inhibition measured after 24 to 48 hrs by MTS assay; type: functional, cell-based

## CO[C@H](C(=O)N1Cc2[nH]nc(NC(=O)c3ccc(N4CCN(C)CC4)cc3)c2C1)c1ccccc1
HL-60
  inhibition in vivo at 30 mg/kg: 98%
[1]
  IC50: 13 nM

## CN[C@@H](C)C(=O)N[C@H](C(=O)N1CCC[C@H]1c1nc(C(=O)c2cccc(OCCCOCC(=O)N3CCN(c4cc(Nc5ncc(C(=O)Nc6c(C)cccc6Cl)s5)nc(C)n4)CC3)c2)cs1)C1CCCCC1
[2]
  DC50: 10 nM
K562 [3]
  IC50: 8.92 nM
[4]
  IC50: 0.54 nM
KU812 cell line
  IC50: 6.72 nM
KCL-22
  IC50: 8.06 nM

## CN[C@@H](C)C(=O)N[C@H](C(=O)N1CCC[C@H]1c1nc(C(=O)c2ccc(OCCOCCOCCOCC(=O)N3CCN(c4cc(Nc5ncc(C(=O)Nc6c(C)cccc6Cl)s5)nc(C)n4)CC3)cc2)cs1)C1CCCCC1
K562 [5]
  IC50: 8.6 nM

## Cc1ncsc1-c1ccc(CNC(=O)[C@@H]2C[C@@H](O)CN2C(=O)[C@@H](NC(=O)COCCNc2ccc(C(=O)Nc3ccc(OC(F)(F)Cl)cc3)cc2-c2cc[nH]n2)C(C)(C)C)cc1
[6]
  Cmax: 536 ng/mL
[7]
  half-life: 3.67 h
K562 [8]
  IC50: 169 nM
[9]
  DC50: 30 nM

## COc1ccc2cc1Oc1ccc(cc1)C[C@H]1c3cc(c(OC)cc3CCN1C)Oc1c(OC)c(OC)cc3c1[C@H](C2)N(C)CC3.O=C(O)CC(O)(CC(=O)O)C(=O)O
K562 [10]
  IC50: 1.2 µg/mL
[11]
  IC50: 1.2 µg/mL
Leukemia cell
  IC50: 1.2 µg/mL

## COc1cc2c3cc1Oc1c(OC)c(OC)cc4c1[C@@H](Cc1ccc(OC(=O)c5ccc(Cl)cc5)c(c1)Oc1ccc(cc1)C[C@@H]3N(C)CC2)N(C)CC4
K562 [12]
  IC50: 0.5 µg/mL (≈ 0.669 µM)

## O=C(Nc1c[nH]nc1-c1nc2ccc(CN3CCOCC3)cc2[nH]1)NC1CC1 [AT-9283]
BaF3 [13]
  IC50: 11 nM
BaF3 [14]
  IC50: 13 nM

## Cc1ccc(NC(=O)c2ccc(CN3CC[C@H](N(C)C)C3)c(C(F)(F)F)c2)cc1Nc1nccc(-c2cncnc2)n1 [BAFETINIB]
[15]
  AUC: 2290 ng·h/mL
[16]
  IC50: 19 nM
[17]
  Cmax: 661 ng/mL
[18]
  bioavailability: 32%
[19]
  half-life: 1 h
[20]
  Tmax: 2 h

## COc1cc2c3cc1Oc1c(OC)c(OC)cc4c1[C@@H](Cc1ccc(O)c(c1)Oc1ccc(cc1)C[C@@H]3N(C)CC2)N(C)CC4 [BERBAMINE]
[21]
  IC50: 8.17 µg/mL (≈ 13.4 µM)
[22]
  IC50: 5.09 µg/mL (≈ 8.36 µM)
K562 [10]
  IC50: 11100 nM
[23]
  IC50: 3.84 µg/mL (≈ 6.31 µM)
[24]
  IC50 at 48 h: 185 µg/mL (≈ 304 µM)
K562 [25]
  IC50: 17100 nM

## COc1ccc(-c2cc(=O)c3c(O)cc(O)cc3o2)cc1O [DIOSMETIN]
K562 [26]
  IC50: 8420 nM
KBM5 [27]
  IC50: 8520 nM
KBM5 [28]
  IC50: 6460 nM
